Test results reported in patent publication US20250179047A1, “5-[7-(3,4-DIHYDRO-1H-ISOQUINOLINE-2-CARBONYL)-1,2,3,4 TETRAHYDROISOQUINOLIN-6-YL]-1H-PYRROLE-3-CARBOXAMIDE DERIVATIVES, PHARMACEUTICAL COMPOSITIONS CONTAINING THEM AND THEIR USES AS PRO-APOPTOTIC AGENTS” (LES LABORATOIRES SERVIER, priority 2022, published 2025).

Legend:
[1] = target: BCL2 WT (Homo sapiens (Human), UniProt P10415); assay: TR-FRET competitive binding assay, BCL2 WT; settings: Ki determined from IC50, read-out: TR_FRET EKI_Bcl2 WT
Summary of the method: (§1)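 Competitive TR-FRET displacement of fluorescein-PUMA peptide (2 or 20 nM) from 0.5 nM terbium-labelled N-terminal Halo-fusion BCL2 (1-207, wild type or mutant) or BCLXL (2-196), expressed in E. coli. Buffer 50 mM Hepes pH 7.5, 150 mM NaCl, 5% DMSO; 2 h at 23°C. 520/495 nm ratio fitted over 11 points for IC50, converted to Ki.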

[2] = tested on: BCL2 G101V; assay: TR-FRET competitive binding assay, BCL2 G101V; design: species or system human; settings: ratio Ki BCL2 G101V / Ki BCL2 WT
Summary of the method: as §1

[3] = target: BCL2 G101V (Homo sapiens, UniProt P10415, G101V); assay: TR-FRET competitive binding assay, BCL2 G101V; settings: BCL2 G101V; Ki determined from IC50; read-out: TR_FRET EKI_Bcl2 G101V
Summary of the method: as §1

[4] = target: BCLXL WT (Homo sapiens (Human), UniProt Q07817); assay: TR-FRET competitive binding assay, BCLXL WT; settings: for Ki: BCLXL WT, Ki determined from IC50, read-out: TR_FRET EKI BclxL; for TR_FRET EKI BCLxL/WT selectivty ratio: ratio Ki BCLxL / Ki BCL2 WT
Chain of BCLXL WT (Q07817 other isoform, or with tags, fused parts or gaps): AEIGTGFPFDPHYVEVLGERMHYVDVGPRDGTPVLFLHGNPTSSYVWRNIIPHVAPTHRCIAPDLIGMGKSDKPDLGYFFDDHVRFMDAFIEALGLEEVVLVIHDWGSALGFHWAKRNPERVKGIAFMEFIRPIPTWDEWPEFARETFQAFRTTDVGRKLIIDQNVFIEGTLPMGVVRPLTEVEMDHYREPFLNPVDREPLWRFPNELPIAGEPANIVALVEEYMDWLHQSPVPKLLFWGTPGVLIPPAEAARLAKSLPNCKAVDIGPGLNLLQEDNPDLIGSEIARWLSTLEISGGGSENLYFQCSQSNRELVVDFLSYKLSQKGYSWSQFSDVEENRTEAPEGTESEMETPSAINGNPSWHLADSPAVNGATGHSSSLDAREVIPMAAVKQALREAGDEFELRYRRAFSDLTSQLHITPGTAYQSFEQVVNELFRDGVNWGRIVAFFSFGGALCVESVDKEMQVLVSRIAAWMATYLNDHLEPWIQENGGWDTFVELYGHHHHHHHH
Summary of the method: as §1

[5] = target: BCL2 D103Y (Homo sapiens, UniProt P10415, D103Y); assay: TR-FRET competitive binding assay, BCL2 D103Y; settings: Ki determined from IC50, read-out: TR_FRET EKI_Bcl2 D103Y
Summary of the method: as §1

[6] = tested on: KMS-12-PE Bcl-2 WT; assay: In vitro cytotoxicity CellTiter-Glo 48 h, KMS-12-PE Bcl-2 WT; format: cell-based; settings: Homo sapiens, KMS-12-PE, C50 = concentration needed to reach 50% of the cellular viability
Summary of the method: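 KMS-12-PE myeloma cells were lentivirally transduced with wild-type or G101V-mutant Bcl-2 and sorted by TagRFP. They were exposed to compounds as 11-point dose responses for 48 h at 37 °C, 5% CO2. Viability was read by CellTiter-Glo ATP luminescence, and C50 was the concentration giving 50% viability.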

SMILES: Cc1c(C(=O)N(c2ccccc2)c2cnc3c(cnn3C)c2)cc(-c2cc3c(cc2C(=O)N2Cc4ccccc4C[C@H]2C)CN(C(=O)Cc2ccc(OCCN4CCOCC4)cc2)CC3)n1C [Example 195, 1,2-dimethyl-5-[7-[(3R)-3-methyl-3,4-dihydro-1H-isoquinoline-2-carbonyl]-2-[2-[4-(2-morpholinoethoxy)phenyl]acetyl]-3,4-dihydro-1H-isoquinolin-6-yl]-N-(1-methylpyrazolo[3,4-b]pyridin-5-yl)-N-phenyl-pyrrole-3-carboxamide]
- Ki [1]: 0.014 nM
- TR_FRET EKI G101V/WT selectivty ratio [2]: 63.6
- Ki [3]: 0.9 nM
- Ki [4]: 5 nM
- TR_FRET EKI BCLxL/WT selectivty ratio [4]: 359.1
- Ki [5]: 0.05 nM
- IC50 [6]: 0.0041 µM

SMILES: COCCn1cc(N(C(=O)c2cc(-c3cc4c(cc3C(=O)N3Cc5ccccc5C[C@H]3C)CN(C(=O)Cc3ccc(OCCN5CCOCC5)cc3)CC4)n(C)c2C)c2ccccc2)cn1 [Example 196, N-[1-(2-methoxyethyl)pyrazol-4-yl]-1,2-dimethyl-5-[7-[(3R)-3-methyl-3,4-dihydro-1H-isoquinoline-2-carbonyl]-2-[2-[4-(2-morpholinoethoxy)phenyl]acetyl]-3,4-dihydro-1H-isoquinolin-6-yl]-N-phenyl-pyrrole-3-carboxamide]
- Ki [1]: 0.03 nM
- TR_FRET EKI G101V/WT selectivty ratio [2]: 83.2
- Ki [3]: 2.7 nM
- Ki [4]: 9.6 nM
- TR_FRET EKI BCLxL/WT selectivty ratio [4]: 301.1
- Ki [5]: 0.09 nM
- IC50 [6]: 0.0089 µM

SMILES: Cc1c(C(=O)N(c2ccccc2)c2cnn(C)c2)cc(-c2cc3c(cc2C(=O)N2Cc4ccccc4C[C@H]2C)CN(C(=O)Cc2ccc(OCCN4CCOCC4)cc2F)CC3)n1C [Example 197, 5-[2-[2-[2-fluoro-4-(2-morpholinoethoxy)phenyl]acetyl]-7-[(3R)-3-methyl-3,4-dihydro-1H-isoquinoline-2-carbonyl]-3,4-dihydro-1H-isoquinolin-6-yl]-1,2-dimethyl-N-(1-methylpyrazol-4-yl)-N-phenyl-pyrrole-3-carboxamide]
- Ki [1]: 0.02 nM
- TR_FRET EKI G101V/WT selectivty ratio [2]: 63.9
- Ki [3]: 1.2 nM
- Ki [4]: 9.9 nM
- TR_FRET EKI BCLxL/WT selectivty ratio [4]: 523.3
- Ki [5]: 0.05 nM
- IC50 [6]: 0.0023 µM

SMILES: Cc1c(C(=O)N(c2ccc(F)cc2)c2cnn(C)c2)cc(-c2cc3c(cc2C(=O)N2Cc4ccccc4C[C@H]2C)CN(C(=O)Cc2ccc(OCCN4CCOCC4)cc2)CC3)n1C [Example 200, N-(4-fluorophenyl)-1,2-dimethyl-5-[7-[(3R)-3-methyl-3,4-dihydro-1H-isoquinoline-2-carbonyl]-2-[2-[4-(2-morpholinoethoxy)phenyl]acetyl]-3,4-dihydro-1H-isoquinolin-6-yl]-N-(1-methylpyrazol-4-yl)pyrrole-3-carboxamide]
- Ki [1]: 0.06 nM
- TR_FRET EKI G101V/WT selectivty ratio [2]: 88.0
- Ki [3]: 5.5 nM
- Ki [4]: 26 nM
- TR_FRET EKI BCLxL/WT selectivty ratio [4]: 419.8
- Ki [5]: 0.15 nM
- IC50 [6]: 0.0155 µM

SMILES: COc1ncc(N(C(=O)c2cc(-c3cc4c(cc3C(=O)N3Cc5ccccc5C[C@H]3C)CN(C(=O)Cc3ccc(OCCN5CCOCC5)cc3F)CC4)n(C)c2C)c2ccccc2)cc1C#N [Example 202, N-(5-cyano-6-methoxy-3-pyridyl)-5-[2-[2-[2-fluoro-4-(2-morpholinoethoxy)phenyl]acetyl]-7-[(3R)-3-methyl-3,4-dihydro-1H-isoquinoline-2-carbonyl]-3,4-dihydro-1H-isoquinolin-6-yl]-1,2-dimethyl-N-phenyl-pyrrole-3-carboxamide]
- Ki [1]: 0.05 nM
- TR_FRET EKI G101V/WT selectivty ratio [2]: 22.9
- Ki [3]: 1.2 nM
- Ki [4]: 10.9 nM
- TR_FRET EKI BCLxL/WT selectivty ratio [4]: 214.7
- Ki [5]: 0.11 nM
- IC50 [6]: 0.0256 µM

SMILES: Cc1ccc(N(C(=O)c2cc(-c3cc4c(cc3C(=O)N3Cc5ccccc5C[C@H]3C)CN(C(=O)Cc3ccc(OCCN5CCOCC5)cc3F)CC4)n(C)c2C)c2ccccc2)cc1C#N [Example 203, N-(3-cyano-4-methyl-phenyl)-5-[2-[2-[2-fluoro-4-(2-morpholinoethoxy)phenyl]acetyl]-7-[(3R)-3-methyl-3,4-dihydro-1H-isoquinoline-2-carbonyl]-3,4-dihydro-1H-isoquinolin-6-yl]-1,2-dimethyl-N-phenyl-pyrrole-3-carboxamide]
- Ki [1]: 0.02 nM
- TR_FRET EKI G101V/WT selectivty ratio [2]: 23.3
- Ki [3]: 0.5 nM
- Ki [4]: 8.5 nM
- TR_FRET EKI BCLxL/WT selectivty ratio [4]: 404.3
- Ki [5]: 0.06 nM
- IC50 [6]: 0.0091 µM

SMILES: Cc1ccc(N(C(=O)c2cc(-c3cc4c(cc3C(=O)N3Cc5ccccc5C[C@H]3C)CN(C(=O)Cc3ccc(OCCN5CCOCC5)cc3)CC4)n(C)c2C)c2ccccc2)cc1C#N [Example 204, N-(3-cyano-4-methyl-phenyl)-1,2-dimethyl-5-[7-[(3R)-3-methyl-3,4-dihydro-1H-isoquinoline-2-carbonyl]-2-[2-[4-(2-morpholinoethoxy)phenyl]acetyl]-3,4-dihydro-1H-isoquinolin-6-yl]-N-phenyl-pyrrole-3-carboxamide]
- Ki [1]: 0.06 nM
- TR_FRET EKI G101V/WT selectivty ratio [2]: 30.8
- Ki [3]: 1.9 nM
- Ki [4]: 9.6 nM
- TR_FRET EKI BCLxL/WT selectivty ratio [4]: 152.4
- Ki [5]: 0.17 nM
- IC50 [6]: 0.0111 µM

SMILES: COC[C@@H]1Cc2ccccc2CN1C(=O)c1cc2c(cc1-c1cc(C(=O)N(c3ccccc3)c3cnn(C(F)F)c3)c(C)n1C)CCN(C(=O)Cc1ccc(OCCN3CCOCC3)cc1)C2 [Example 205, N-[1-(difluoromethyl)pyrazol-4-yl]-5-[7-[(3S)-3-(methoxymethyl)-3,4-dihydro-1H-isoquinoline-2-carbonyl]-2-[2-[4-(2-morpholinoethoxy)phenyl]acetyl]-3,4-dihydro-1H-isoquinolin-6-yl]-1,2-dimethyl-N-phenyl-pyrrole-3-carboxamide]
- Ki [1]: 0.07 nM
- TR_FRET EKI G101V/WT selectivty ratio [2]: 100.3
- Ki [3]: 7.4 nM
- Ki [4]: 20 nM
- TR_FRET EKI BCLxL/WT selectivty ratio [4]: 270.3
- Ki [5]: 0.19 nM
- IC50 [6]: 0.0126 µM

SMILES: Cc1c(C(=O)N(c2ccccc2)c2cnn(C(F)F)c2)cc(-c2cc3c(cc2C(=O)N2Cc4ccccc4C[C@H]2CN2CC4(CCC4)C2)CN(C(=O)Cc2ccc(OCCN4CCOCC4)cc2)CC3)n1C [Example 206, 5-[7-[(3S)-3-(2-azaspiro[3.3]heptan-2-ylmethyl)-3,4-dihydro-1H-isoquinoline-2-carbonyl]-2-[2-[4-(2-morpholinoethoxy)phenyl]acetyl]-3,4-dihydro-1H-isoquinolin-6-yl]-N-[1-(difluoromethyl)pyrazol-4-yl]-1,2-dimethyl-N-phenyl-pyrrole-3-carboxamide]
- Ki [1]: 0.014 nM
- TR_FRET EKI G101V/WT selectivty ratio [2]: 321.5
- Ki [3]: 4.5 nM
- Ki [4]: 107 nM
- TR_FRET EKI BCLxL/WT selectivty ratio [4]: 7642.9
- Ki [5]: 0.09 nM
- IC50 [6]: 0.047 µM

SMILES: Cc1c(C(=O)N(c2ccccc2)c2cnn(CCN(C)C)c2)cc(-c2cc3c(cc2C(=O)N2Cc4ccccc4C[C@H]2C)CN(C(=O)Cc2ccc(OCCC4CCOCC4)cc2)CC3)n1C [Example 207, N-[l-[2-(dimethylamino)ethyl]pyrazol-4-yl]-1,2-dimethyl-5-[7-[(3R)-3-methyl-3,4-dihydro-1H-isoquinoline-2-carbonyl]-2-[2-[4-(2-tetrahydropyran-4-ylethoxy)phenyl]acetyl]-3,4-dihydro-1H-isoquinolin-6-yl]-N-phenyl-pyrrole-3-carboxamide]
- Ki [1]: 0.02 nM
- TR_FRET EKI G101V/WT selectivty ratio [2]: 68.8
- Ki [3]: 1.4 nM
- Ki [4]: 3 nM
- TR_FRET EKI BCLxL/WT selectivty ratio [4]: 150.0
- Ki [5]: 0.04 nM
- IC50 [6]: 0.023 µM

SMILES: Cc1c(C(=O)N(c2ccccc2)c2cnn(C)c2)cc(-c2cc3c(cc2C(=O)N2Cc4ccccc4C[C@H]2C)CN(C(=O)Cc2ccc(OCCN(C)C)cc2)CC3)n1C [Example 208, 5-[2-[2-[4-[2-(dimethylamino)ethoxy]phenyl]acetyl]-7-[(3R)-3-methyl-3,4-dihydro-1H-isoquinoline-2-carbonyl]-3,4-dihydro-1H-isoquinolin-6-yl]-1,2-dimethyl-N-(1-methylpyrazol-4-yl)-N-phenyl-pyrrole-3-carboxamide]
- Ki [1]: 0.04 nM
- TR_FRET EKI G101V/WT selectivty ratio [2]: 83.8
- Ki [3]: 3.7 nM
- Ki [4]: 8.8 nM
- TR_FRET EKI BCLxL/WT selectivty ratio [4]: 200.0
- Ki [5]: 0.12 nM
- IC50 [6]: 0.0301 µM

SMILES: COc1ccc(N(C(=O)c2cc(-c3cc4c(cc3C(=O)N3Cc5ccccc5C[C@H]3C)CN(C(=O)Cc3ccc(OCCN5CCOCC5)cc3)CC4)n(C)c2C)c2ccc(F)cc2)cc1C#N [Example 209, N-(3-cyano-4-methoxy-phenyl)-N-(4-fluorophenyl)-1,2-dimethyl-5-[7-[(3R)-3-methyl-3,4-dihydro-1H-isoquinoline-2-carbonyl]-2-[2-[4-(2-morpholinoethoxy)phenyl]acetyl]-3,4-dihydro-1H-isoquinolin-6-yl]pyrrole-3-carboxamide]
- Ki [1]: 0.08 nM
- TR_FRET EKI G101V/WT selectivty ratio [2]: 47.5
- Ki [3]: 3.8 nM
- Ki [4]: 23 nM
- TR_FRET EKI BCLxL/WT selectivty ratio [4]: 291.1
- Ki [5]: 0.21 nM
- IC50 [6]: 0.0486 µM
